We go through nine compounds from US9650497B2, “Phosphonamidates-synthesis and flame retardant applications” (EMPA EIDGENOSSISCHE MATERIALPRUFUNGS- UND FORSCHUNGSANSTALT, priority 2011, dated 2017).

A short description of series [1]: BKZ flammability test (Swiss standard, vertical burning). The method, then: The synthesized compounds were evaluated for flame retardant properties by incorporating them in flexible PU foams.
The flexible polyurethane foams were manufactured according to the recipe mentioned in Table 3 below.
The manufacture of the foams according to the formulations in Table 3 was done by handmix in the laboratory based on 200 gms polyol. The formulation of the components taking part in the reaction was identical in all cases except for the addition of Flame retardants where indicated.
The resulting foams were dried and aged for 3 h at 80° C. The foams were then tested for their flammability according to Swiss flammability standard (BKZ). It's a vertical burning test for foamed materials with a specific sample size (length: 160 mm, width: 60 mm, thickness: 6 mm±10% tolerance). For each specimen flame test (BKZ) was performed in triplicate. If the results were not consistent, each specimen was tested 6 times. For the BKZ test an air dried specimen was placed in a vertical position and subjected to flame from the lower front edge by a standardized flame. The flame height of 20 mm was maintained and should burn constantly with sharp outlines. The burner position was adjusted 45° so that the flame hits the specimen vertically in the middle of the lower front edge. The flame is brought in contact with the foam for 15 sec and should be placed such that the foam bottom is approximately 4±1 mm inside the flame from the tip.

Series [2] can be described thus: UL-94 HB test (ASTM D4986 or ISO/DIS 9772.3, horizontal). Particulars: for flame retardancy effect compared to unmodified DOPO: Table 6; for UL 94 HB test rating (Horizontal): OH terminated prepolymer foam.
A short description of series [3]: TGA thermal decomposition of DOPO and amino DOPO derivatives. In kind it is physicochemical. Particulars: for TdMax: Temperature for maximum decomposition rate: several values = multiple decomposition stages. The method, then: One of the important objectives of developing various amino derivatives of DOPO was to improve the thermal stability of DOPO itself. This will ensure their suitability to be used in thermoplastic polymers which require usually high processing temperatures (200-350° C.).

Series [4] in a line: Water solubility of DOPO compounds. In kind it is physicochemical. Conditions: for water solubility in words: up to 90° C.; for solubility: water. An excerpt:
These DOPO-derivatives are very barely soluble in water as it is exemplarily shown for EDAB-DOPO and TEPA-PDOPO in table 2.

Series [5] can be described thus: Small Burner test, DIN 4102-1 class B2, edge application of flame. Particulars: spray foam. The method, then:
The Small Burner test equipment employed within this patent is in accordance to the requirements for the tests of the building materials class B2 specified in DIN 4102-1.
All flame tests done within this report are based on edge application of the impinging flame.
The B2-burner tests were carried out approx. one week after foaming.

[6] abbreviates: 5% FR in flexible PU foam (Table 3 recipe, handmix).
Where [7] appears, read: 25° C., read-out: solubilitiy FR in water mg/L.
Setting [8] is: 25° C., read-out: solubilitiy FR in water mmol/L.
Where [9] appears, read: 90° C., read-out: solubilitiy FR in water mg/L.
Setting [10] is: 90° C., read-out: solubilitiy FR in water mmol/L.

Where two headings read alike, the source gives them in different places. A value given as a limit tells only on which side of the number the result lay.

For the compound `C=CCNP1(=O)Oc2ccccc2-c2ccccc21` (centres unmarked) [AA-DOPO], the “BKZ Classification” value in series [1] (setting [6]) is “Class 5 (flame does not reach the top level of the sample holder (150 mm). duration ≦ 20 s)”. In addition, in series [2] (5% FR in flexible PU foam), the “Burning Rate” value is 47 mm/min, the “UL-94 HB Rating” value was “HF-2” and the “flame retardancy effect compared to unmodified DOPO” value is “better flame retardancy effect as compared to unmodified DOPO”. For the same compound, in series [3], the “Td1: Temperature for 10% weight loss” value was 247 °C, the “% Char at 800° C.” value stood at 3% and the “TdMax: Temperature for maximum decomposition rate” value (from here on “TdMax: Temperature”) is 295 °C.
Regarding `O=[PH]1Oc2ccccc2-c2ccccc21` (centres unmarked) [DOPO, 9,10-dihydro-9-oxa-phosphaphenanthrene-10-oxide, reference compound], in series [1] (setting [6]), the “BKZ Classification” value is listed as “Class 5 (flame does not reach the top level of the sample holder (150 mm). duration ≦ 20 s)”. For the same compound, in series [2] (5% FR in flexible PU foam), the “Burning Rate” value amounted to 48 mm/min and the “UL-94 HB Rating” value is given as “HBF”. Besides, in series [3], the “Td1: Temperature for 10% weight loss” value was found to be 201 °C, the “temperature at which decomposition starts” value is under 200 °C, the “% Char at 800° C.” value was 2% and the “TdMax: Temperature” value stood at 267 °C.
As for `O=P1(NCCOP2(=O)Oc3ccccc3-c3ccccc32)Oc2ccccc2-c2ccccc21` (centres unmarked) [EAB-DOPO], in series [3], the “Td1: Temperature for 10% weight loss” value turned out to be 311 °C, the “% Char at 800° C.” value is 2% and the “TdMax: Temperature” value amounted to 387 °C.
For the compound `O=P1(NCCNP2(=O)Oc3ccccc3-c3ccccc32)Oc2ccccc2-c2ccccc21` (centres unmarked) [EDAB-DOPO], in series [4], the “water solubility in words” value is “only very small amounts”. The solubility in series [4] (setting [7]) was determined as 393 mg/L; in series [4] (setting [8]) it was 0.8 mmol/L; in series [4] (setting [9]), 501 mg/L; in series [4] (setting [10]), 1.03 mmol/L. For the same compound, the “BKZ Classification” value in series [1] (setting [6]) was “Class 5 (flame does not reach the top level of the sample holder (150 mm). duration ≦ 20 s)”. Besides, the “flammability performance versus TCPP” value in series [1] (polyether foam, lower density, 2.8 pphp water, columns 3 and 5) is reported as “works better at least in vertical tests”; in series [1] (polyether foam, water 1.6 pphp, columns 4 and 2) it was “works at least as well than TCPP”. In series [1] (polyether foam, water 1.6 pphp, columns 4 and 1), the “effect on flammability versus foam without FR” value is given as “positive effect on flammability”. Besides, the “Burning Rate” value in series [2] (5% FR in flexible PU foam) is 25 mm/min. Besides, in series [2] (5% FR in flexible PU foam), the “UL-94 HB Rating” value is given as “HF-1”. In series [2] (5% FR in flexible PU foam), the “flame retardancy effect compared to unmodified DOPO” value is reported as “better flame retardancy effect as compared to unmodified DOPO”. Moreover, the “effect of doubling the amount of FR on flame height and extinguishing of the flame” value in series [5] was “no significant effect”. Further, the “Td1: Temperature for 10% weight loss” value in series [3] was 355 °C. The “% Char at 800° C.” value in series [3] is on record as 7%. Besides, the “TdMax: Temperature” value in series [3] came to 415 °C.
`O=P1(N2CCN(P3(=O)Oc4ccccc4-c4ccccc43)CC2)Oc2ccccc2-c2ccccc21` (centres unmarked) [PB-DOPO]: the “BKZ Classification” value in series [1] (setting [6]) was “Class 5 (flame does not reach the top level of the sample holder (150 mm). duration ≦ 20 s)”. Further, in series [2] (5% FR in flexible PU foam), the “Burning Rate” value is listed as 57 mm/min and the “UL-94 HB Rating” value was “HBF”. In addition, in series [3], the “Td1: Temperature for 10% weight loss” value is 387 °C, the “% Char at 800° C.” value worked out at 5% and the “TdMax: Temperature” value was 433 °C.
For `CC(CCl)OP(=O)(OC(C)CCl)OC(C)CCl` (centres unmarked) [TCPP, Tris(2-chlorisopropyl)phosphate, reference compound], the “BKZ Classification” value in series [1] is on record as “Class 5 (key: Class 3: time 5-20 s; Class 4: time, duration of burning > 20 s; Class 5: flame does not reach the top level of the sample holder (150 mm). duration ≦ 20 s)”. Besides, in series [2], the “Burning Rate” value is 23 mm/min and the “UL-94 HB Rating” value is recorded as “HBF”.
In the case of `O=P1(NCCN(CCNP2(=O)Oc3ccccc3-c3ccccc32)P2(=O)Oc3ccccc3-c3ccccc32)Oc2ccccc2-c2ccccc21` (centres unmarked) [TDETA-DOPO], in series [1] (setting [6]), the “BKZ Classification” value is given as “Class 5 (flame does not reach the top level of the sample holder (150 mm). duration ≦ 20 s)”. The “UL-94 HB Rating” value in series [2] (5% FR in flexible PU foam) was “HF-1”. Moreover, in series [3], the “Td1: Temperature for 10% weight loss” value turned out to be 294 °C, the “% Char at 800° C.” value stood at 2% and the “TdMax: Temperature” value was 385 °C.
In the case of `O=P1(NCCN(CCN(CCN(CCNP2(=O)Oc3ccccc3-c3ccccc32)P2(=O)Oc3ccccc3-c3ccccc32)P2(=O)Oc3ccccc3-c3ccccc32)P2(=O)Oc3ccccc3-c3ccccc32)Oc2ccccc2-c2ccccc21` (centres unmarked) [TEPA-PDOPO, tetraethylenepentaamine DOPO], in series [4], the “water solubility in words” value is “only very small amounts”. The solubility was found to be 15.4 mg/L in series [4] (setting [7]), 0.01 mmol/L in series [4] (setting [8]), 818 mg/L in series [4] (setting [9]) and 0.65 mmol/L in series [4] (setting [10]). The “BKZ Classification” value in series [1] (setting [6]) is “Class 5 (flame does not reach the top level of the sample holder (150 mm). duration ≦ 20 s)”. Also, the “BKZ Class (Vertical)” value in series [1] (10 pphp FR, OH terminated prepolymer foam) amounted to 5. The “effect of more FR on flammability behavior” value in series [1] (OH terminated prepolymer foam, 5 vs 10 pphp, horizontal and vertical tests) is “improves flammability behavior in both horizontal and vertical tests”. Moreover, in series [2] (5% FR in flexible PU foam), the “UL-94 HB Rating” value is reported as “HF-1”. The “UL 94 HB test rating (Horizontal)” value in series [2] (5 pphp FR) was “HF2”; in series [2] (10 pphp FR), “HF1”. Further, in series [5], the “effect of doubling the amount of FR on flame height and extinguishing of the flame” value was “no significant effect”.
`CCO[Si](CCCNP1(=O)Oc2ccccc2-c2ccccc21)(OCC)OCC` (centres unmarked) [TESPA-DOPO]: in series [3], the “Td1: Temperature for 10% weight loss” value was determined as 234 °C, the “% Char at 800° C.” value is given as 28% and the “TdMax: Temperature” value was 135/287/437.
